In patent US20240197728A1, “METHODS AND PHARMACEUTICAL COMPOSITIONS FOR TREATING REFRACTORY EPILEPSY” (INSERM (INSTITUT NATIONAL DE LA SANTÉ ET DE LA RECHERCHE …, priority 2021, published 2024):

Tests used:
[1] = system: spontaneous interictal-like discharges (IIDs) in slices from mTLE patients; test: Multielectrode array recording of postoperative hippocampal-subicular slices from mTLE patients; format: cell-based, human; details: 10 μM bumetanide, >10 min application
Experimental: (§1) For all experiments on hippocampal cultures, neurons were pre-incubated for 2 hours with either DMSO, PCPZ or CLP257 in a CO2 incubator set at 37° C. Drugs were added directly to the culture medium. For electrophysiology experiments, neurons were also recorded in presence of these drugs in the bath. For biochemistry experiments on rat hippocampo-cortical slices, slices were incubated with either DMSO (vehicle), CLP257, PCPZ, WNK463 or sodium orthovanadate for 2 hours in interface chambers set at 37° C. For human tissue experiments, slices were pre-incubated with either DMSO, CLP257 or PCPZ for 2 hours in interface chambers set at 37° C. and then also recorded in presence of these compounds.
Patients or their legal guardians gave informed consent to participate in the study. Patients ([…], 3 males, 4 female, age range: 16-54 years) diagnosed with mesial temporal lobe epilepsy with hippocampal sclerosis underwent multimodal preoperative neurological, neurophyschological and psychiatric evaluations as well as video-electroencephalographic recording, magnetic resonance imaging and fluorodeooxyglugose positron emission tomography. Cortectomies were performed at Sainte-Anne Hospital by neurosurgeons B. Devaux and B. Turak and at Pitié-Salpêtriére Hospital by neurosurgeons S. Clemenceau and B. Mathon. Cortical specimens collected in the operating room were immediately transported in ice-cold (0-4° C.), oxygenated solution (O2/CO2 95/5%), containing (in mM): N-methyl-d-glucamine 93, KCl 2.5, NaH2PO4 1.2, NaHCO3 30, HEPES 20, D-glucose 20, ascorbic acid 5, sodium pyruvate 3, MgSO4 10 and CaCl2 0.5 (300-310 mOsm, pH7.4) and transported within 15 minutes to the laboratory. Transverse hippocampal-subicular slices (400 m thick) were prepared in the same solution using a vibratome (HM650V, Microm). They were maintained for 20-30 minutes at 37° C. and then at room temperature in an interface chamber containing artificial cerebrospinal fluid (ACSF) composed of (in mM): D-glucose 10, KCl 3.5, NaHOC3 26, NaH2PO4 1.25, NaCl 126, CaCl2 1.6 and MgCl2 1.2 (290 mOsm), equilibrated with 5% CO2 in 95% 02.
Multielectrode array recordings were performed using a MEA2100 station (Multi Channel Systems) equipped with a 120-microelectrode array chamber (custom 12×10 layout, 30 μm TiN electrodes spaced 1 mm vertical and 1.5 mm horizontal). Slices were maintained in the recording chamber using a home-made platinum-nylon harp and superfused with pre-warmed (37° C.) oxygenated ACSF at a rate of 6 ml/min. Slices were imaged using a video-microscope table (MEA-VMT1, Multi Channel Systems) in order to register the location of electrodes with respect to the slice. Extracellular signals were acquired at a sampling rate of 10 kHz using Multi Channel Experimenter (Multi Channel Systems) and analyzed offline using homemade software (Matlab, The Mathworks).

NKCC1 = biological target: T1, NKCC1 (Homo sapiens, UniProt P55011); details: NEMO trial, neonatal seizures; cited from earlier work
T1 sequence (P55011 1-1212): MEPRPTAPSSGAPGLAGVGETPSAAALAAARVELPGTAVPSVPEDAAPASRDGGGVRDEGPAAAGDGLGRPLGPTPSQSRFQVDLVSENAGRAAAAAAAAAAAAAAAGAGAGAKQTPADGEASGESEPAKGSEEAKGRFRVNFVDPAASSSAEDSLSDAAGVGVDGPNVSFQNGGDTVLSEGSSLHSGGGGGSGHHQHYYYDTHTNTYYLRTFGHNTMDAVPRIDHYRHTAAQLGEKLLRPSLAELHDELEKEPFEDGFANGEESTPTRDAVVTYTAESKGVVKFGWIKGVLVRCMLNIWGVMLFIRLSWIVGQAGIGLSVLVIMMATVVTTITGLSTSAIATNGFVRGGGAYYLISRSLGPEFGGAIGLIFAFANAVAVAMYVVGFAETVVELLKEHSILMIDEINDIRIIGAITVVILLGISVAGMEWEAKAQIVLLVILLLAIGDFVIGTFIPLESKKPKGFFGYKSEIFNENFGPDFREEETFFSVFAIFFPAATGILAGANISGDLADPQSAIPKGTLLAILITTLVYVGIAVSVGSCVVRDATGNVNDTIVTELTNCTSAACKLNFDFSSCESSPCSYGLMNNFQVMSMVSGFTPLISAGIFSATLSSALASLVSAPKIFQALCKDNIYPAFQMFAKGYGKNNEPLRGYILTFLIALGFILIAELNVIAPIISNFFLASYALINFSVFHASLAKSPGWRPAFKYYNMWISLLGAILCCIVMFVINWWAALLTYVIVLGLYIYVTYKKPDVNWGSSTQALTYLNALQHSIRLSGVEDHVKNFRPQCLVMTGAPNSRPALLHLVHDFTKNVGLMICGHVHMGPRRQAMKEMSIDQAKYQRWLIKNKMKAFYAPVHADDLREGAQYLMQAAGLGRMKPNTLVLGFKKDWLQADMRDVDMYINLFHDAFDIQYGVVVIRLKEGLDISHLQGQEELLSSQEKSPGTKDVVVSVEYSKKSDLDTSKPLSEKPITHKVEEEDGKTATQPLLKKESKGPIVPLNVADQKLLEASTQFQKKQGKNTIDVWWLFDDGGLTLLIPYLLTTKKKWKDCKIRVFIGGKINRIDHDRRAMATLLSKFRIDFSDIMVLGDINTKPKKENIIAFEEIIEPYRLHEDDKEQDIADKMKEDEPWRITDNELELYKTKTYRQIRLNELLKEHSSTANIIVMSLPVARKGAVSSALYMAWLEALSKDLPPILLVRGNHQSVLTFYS

KCC2 = test: Immunoprecipitation/immunoblot of KCC2 phosphorylation and expression in hippocampo-cortical slices; format: cell-based, rat
Experimental: as §1
(§2) 8-weeks old Sprague Dawley male rats were anesthetized by intraperitoneal ketamine/xylazine injection (120/10 mg/kg) and perfused transcardially with ice-cold (0-4° C.), oxygenated solution (O2/CO2 95/5%), containing (in mM): N-methyl-d-glucamine 93, KCl 2.5, NaH2PO4 1.2, NaHCO330, HEPES 20, D-glucose 20, ascorbic acid 5, sodium pyruvate 3, MgSO4 10 and CaCl2) 0.5 (300-310 mOsm, pH7.4). Brains were removed and transverse hippocampo-cortical slices (400 m thick) were prepared in the same solution using a vibratome (HM650V, Microm). Slices were then incubated for 2-hours with DMSO, the KCC2 enhancers (CLP257, PCPZ, WNK43) or sodium orthovanadate in an interface chamber containing artificial cerebrospinal fluid (ACSF) composed of (in mM): D-glucose 10, KCl 3.5, NaHOC3 26, NaH2PO4 1.25, NaCl 126, CaCl2) 1.6 and MgCl2 1.2 (290 mOsm), equilibrated with 5% CO2 in 95% 02. After the treatments, slices were washed with cold PBS, instantaneously frozen with liquid nitrogen and stored at −80° C.
(§3) Slices were mechanically lysed on ice, using a 2 mL Dounce, in a buffer containing (in mM): Tris/HCl, pH 7.5 50, EGTA 1, EDTA 1, sodium orthovanadate 1, sodium-B-glycerophosphate 10, sodium fluoride 50, sodium pyrophosphate 5, sucrose 270, benzamidine 1, phenylmethylsulfonyl fluoride 2, Triton […], (v/v) 2-mercaptoethanol 0.1% and protease inhibitors (Roche). After complete homogenization, samples were centrifuged (16,000×g at 4° C. for 10 min) and the supernatant was collected. Protein quantification was done using Pierce BCA Protein Assay kit (Thermo Scientific) with BSA as standard.
The following phosphorylation site-specific antibodies: anti-KCC3A phospho Thr1048 (0.35 mg/ml, sheep, [S0961C] 1st bleed, Dundee), anti-KCC3A phospho Thr 991 (0.26 mg/ml, sheep, [S959C] 1st bleed, Dundee) were first incubated for 30 min at 4° C. with the corresponding non-phosphorylated peptide (10 mg/ml, Dundee).
Phospho-antibodies or anti-KCC2 antibodies (07-432; Millipore) were then coupled with protein-G-Sepharose (4 Fast Flow; Sigma-Aldrich) at a ratio of […] of antibody per 100 μl of beads, for 2 h at 4° C. without agitation. 1.5 mg of clarified cell lysate was incubated with the antibody-coupled bead suspension, overnight at 4° C. under gentle agitation. The supernatant was collected after centrifugation and beads were washed twice with NaCl solution (0.25M NaCl in 1×PBS) and twice with PBS alone. Bound proteins were eluted with 2×LDS sample buffer (Invitrogen) containing 0.5% (v/v) 2-mercaptoethanol and denaturated at 75° C. for 20 min (IP with phospho-antibodies) or 37° C. for 1 h (IP with anti-KCC2 antibodies) before centrifugation (13,000×g at 4° C. for 15-20 min).
Samples were subjected to electrophoresis on polyacrylamide gradient gels (4-12% bis-tris gels) and transferred to nitrocellulose membranes. Membranes were rinsed with TBS-tween solution (TBST; Invitrogen) and blocked with 5% (w/v) skim milk. The membranes were then immunoblotted in 5% (w/v) skim milk in TBST with a primary antibody against KCC2 (rabbit, 07-432; Millipore; 1:1000), or phosphotyrosine (mouse, clone 4G10, Millipore, 1:1000), and a mouse primary antibody against neuron-specific beta-III tubulin overnight at 4° C. (clone 2G10; T8578; Sigma-Aldrich; 1:1000). […]

SPAK = test: Immunoblot of SPAK phosphorylation and expression in hippocampo-cortical slices; format: cell-based, rat; details: 10 μM WNK463, 2 h; vs DMSO
Experimental: as §1, §2, §3
Samples were subjected to electrophoresis on polyacrylamide gradient gels (4-12% bis-tris gels) and transferred to nitrocellulose membranes. Membranes were rinsed with TBS-tween solution (TBST; Invitrogen) and blocked with 5% (w/v) skim milk. […] Fluorescence was detected and the relative intensities of immunoblot bands were determined using Odyssey infrared imaging system (LI-COR Bioscience). […]

OSR1 = test: Immunoblot of OSR1 phosphorylation and expression in hippocampo-cortical slices; format: cell-based, rat; details: 10 μM WNK463, 2 h; vs DMSO
Experimental: as §1, §2, §3
Samples were subjected to electrophoresis on polyacrylamide gradient gels (4-12% bis-tris gels) and transferred to nitrocellulose membranes. Membranes were rinsed with TBS-tween solution (TBST; Invitrogen) and blocked with 5% (w/v) skim milk. The membranes were then immunoblotted in 5% (w/v) skim milk in TBST with a primary antibody against KCC2 (rabbit, 07-432; Millipore; 1:1000), or phosphotyrosine (mouse, clone 4G10, Millipore, 1:1000), and a mouse primary antibody against neuron-specific beta-III tubulin overnight at 4° C. (clone 2G10; T8578; Sigma-Aldrich; 1:1000). They were then washed three times with distillated water, three times with TBST-milk solution and incubated for one hour at RT with goat secondary antibodies anti-rabbit IRDye 800 (1:3000; LI-COR), goat anti-mouse IRDye 700 (1:3000; LI-COR) or donkey anti-sheep DyLight 800 (1:3000; Rockland). Membranes were then washed again with TBST three times and one time with TBS. Fluorescence was detected and the relative intensities of immunoblot bands were determined using Odyssey infrared imaging system (LI-COR Bioscience). […]

SMILES: CCCCNc1cc(C(=O)O)cc(S(N)(=O)=O)c1Oc1ccccc1 [bumetanide]
- slices in which the amplitude of IIDs was reduced or IIDs abolished [1]: 3 of 4
- hearing loss in surviving patients (NKCC1): 3/11

SMILES: [Na+].[Na+].[Na+].[O]=[V]([O-])([O-])[O-] [sodium orthovanadate]
- change of tyrosine phosphorylation of KCC2 (KCC2; sodium orthovanadate 200 μM in H2O (FIG. 4 legend), 2 h): +89.10±45.40%

SMILES: CC(C)(C)NC(=O)c1cncn1C1CCN(c2ccc(-c3nnc(C(F)(F)F)o3)cn2)CC1 [WNK463]
- change of total KCC2 expression (KCC2; 10 μM WNK463, 2 h, slices, vs DMSO): −7.64±13.00%
- change of KCC2 phosphorylation at S940 (KCC2; 10 μM WNK463, 2 h, vs DMSO): −14.40±4.67%
- change of KCC2 phosphorylation at T906 (KCC2; 10 μM WNK463, 2 h, vs DMSO): −13.70±12.5%
- change of KCC2 phosphorylation at T1007 (KCC2; 10 μM WNK463, 2 h, vs DMSO): −78.702±3.27%
- change of SPAK phosphorylation (S327) (SPAK): −84.10±4.57%
- change of OSR1 phosphorylation (S325) (OSR1): −81.00±5.56%
